Test results: paper PMC12681378, “Transcriptomic and enzymological evidence for plastid peptidoglycan synthesis in the gymnosperm Picea abies” (The Plant Journal, 2025)

Legend:
Format in all cases: biochemical
His_AnMurE (46T) [1] = biological target: T1, His_AnMurE (46T) (Nostoc sp. PCC 7120 = FACHB-418, UniProt Q8YWF0); assay: Amplex Red phosphate-release coupled assay; details: 30 C, pH 7.6, 10 mM MgCl2, ATP, UDP-MurNAc-L-Ala-D-Glu
T1 construct: gene murE; N-terminal His tag (pPROEX); E. coli
T1 sequence (Q8YWF0 1-496): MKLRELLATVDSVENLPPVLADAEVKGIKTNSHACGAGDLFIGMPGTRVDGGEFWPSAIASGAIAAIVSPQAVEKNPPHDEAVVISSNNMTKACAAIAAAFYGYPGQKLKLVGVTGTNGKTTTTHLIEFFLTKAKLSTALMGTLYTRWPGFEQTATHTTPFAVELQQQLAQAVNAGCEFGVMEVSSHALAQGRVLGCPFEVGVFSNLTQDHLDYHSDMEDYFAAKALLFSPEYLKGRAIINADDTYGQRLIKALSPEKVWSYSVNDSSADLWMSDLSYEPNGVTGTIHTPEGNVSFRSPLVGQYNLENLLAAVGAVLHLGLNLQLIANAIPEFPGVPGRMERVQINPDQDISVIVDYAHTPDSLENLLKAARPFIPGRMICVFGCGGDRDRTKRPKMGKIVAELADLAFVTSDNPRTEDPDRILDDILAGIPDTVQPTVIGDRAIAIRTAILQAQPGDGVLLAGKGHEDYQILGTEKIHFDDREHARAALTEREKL

[2] = biological target: T2, Streptococcus pneumoniae MurE (Streptococcus pneumoniae, UniProt Q8CWQ5); assay: Amplex Red phosphate-release coupled assay; details: 30 C, pH 7.6, 10 mM MgCl2, ATP
T2 construct: cloned into pET21; E. coli
T2 sequence (Q8CWQ5 1-481): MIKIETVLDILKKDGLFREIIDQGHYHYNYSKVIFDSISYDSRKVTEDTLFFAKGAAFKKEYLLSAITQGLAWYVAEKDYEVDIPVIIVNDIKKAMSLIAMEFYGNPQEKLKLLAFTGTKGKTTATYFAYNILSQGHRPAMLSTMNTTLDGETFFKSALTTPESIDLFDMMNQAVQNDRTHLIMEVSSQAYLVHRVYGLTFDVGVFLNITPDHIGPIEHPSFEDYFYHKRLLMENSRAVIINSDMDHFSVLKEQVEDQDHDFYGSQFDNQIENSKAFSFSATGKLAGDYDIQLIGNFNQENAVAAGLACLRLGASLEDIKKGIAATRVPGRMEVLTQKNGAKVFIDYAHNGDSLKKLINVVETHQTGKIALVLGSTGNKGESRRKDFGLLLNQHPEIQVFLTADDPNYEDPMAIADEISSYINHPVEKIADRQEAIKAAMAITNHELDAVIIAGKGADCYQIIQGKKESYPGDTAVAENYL

[3] = biological target: T3, Pseudomonas aeruginosa MurE (Pseudomonas aeruginosa, UniProt Q59650); assay: Amplex Red phosphate-release coupled assay; NADH assay; details: 30 C, pH 7.6, 10 mM MgCl2, ATP
T3 construct: cloned into pET21; E. coli
T3 sequence (Q59650 1-487): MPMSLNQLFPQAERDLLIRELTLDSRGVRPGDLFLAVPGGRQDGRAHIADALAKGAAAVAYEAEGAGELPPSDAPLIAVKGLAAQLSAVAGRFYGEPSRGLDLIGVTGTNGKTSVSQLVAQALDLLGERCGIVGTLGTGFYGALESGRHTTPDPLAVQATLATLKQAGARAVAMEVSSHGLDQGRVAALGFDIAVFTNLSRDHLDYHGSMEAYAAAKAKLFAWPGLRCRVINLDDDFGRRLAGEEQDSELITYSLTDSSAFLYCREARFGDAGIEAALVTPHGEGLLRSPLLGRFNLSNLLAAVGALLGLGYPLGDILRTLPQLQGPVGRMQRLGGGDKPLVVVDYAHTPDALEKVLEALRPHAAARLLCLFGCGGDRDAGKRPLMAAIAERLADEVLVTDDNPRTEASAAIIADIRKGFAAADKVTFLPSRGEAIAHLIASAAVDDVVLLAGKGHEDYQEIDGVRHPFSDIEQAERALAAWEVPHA

PpMurE-TP_Avi_His (1.1T) = biological target: T4, PpMurE-TP_Avi_His (1.1T) (Physcomitrium patens, UniProt Q3LHI5); assay: as above; details: 30 C, pH 7.6, 10 mM MgCl2, ATP
T4 construct: gene MurE; from Leu63; transit peptide removed; E. coli

His_AnMurE (46T) [4] = biological target: T1, His_AnMurE (46T); assay: inhibition seen in Amplex Red coupled assay; details: product inhibition; 30 C, pH 7.6

T4 sequence (Q3LHI5 entry or part of it): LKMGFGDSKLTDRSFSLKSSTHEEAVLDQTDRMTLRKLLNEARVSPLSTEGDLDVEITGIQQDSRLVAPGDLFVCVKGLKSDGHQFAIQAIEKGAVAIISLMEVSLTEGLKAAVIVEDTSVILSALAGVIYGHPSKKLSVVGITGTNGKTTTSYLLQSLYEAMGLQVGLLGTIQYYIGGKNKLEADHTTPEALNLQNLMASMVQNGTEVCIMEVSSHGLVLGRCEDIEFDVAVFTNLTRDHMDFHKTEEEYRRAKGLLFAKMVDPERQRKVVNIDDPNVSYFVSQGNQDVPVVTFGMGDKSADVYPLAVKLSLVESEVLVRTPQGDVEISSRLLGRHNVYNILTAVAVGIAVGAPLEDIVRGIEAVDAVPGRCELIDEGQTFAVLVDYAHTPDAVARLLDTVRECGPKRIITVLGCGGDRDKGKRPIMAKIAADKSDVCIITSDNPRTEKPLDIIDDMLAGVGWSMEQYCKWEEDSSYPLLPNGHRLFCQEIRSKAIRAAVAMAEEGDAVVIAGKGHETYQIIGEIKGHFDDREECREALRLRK

N[C@@H](CSC[C@H](N)C(=O)O)C(=O)O (racemic) [D, L-lanthionine]
Amplex Red phosphate-release coupled assay (His_AnMurE (46T) [1]): D, L‐lanthionine was equally as efficiently incorporated as D, L‐DAP by Anabaena MurE

NCCCC[C@H](N)C(=O)O [L-lysine]
Amplex Red phosphate-release coupled assay ([2]; UDP-MurNAc-L-Ala-D-Glu): able to utilize both L‐hydroxylysine and L‐lysine as substrates

CC(=O)N[C@H]1[C@@H](OP(=O)(O)OP(=O)(O)OC[C@H]2O[C@@H](n3ccc(=O)[nH]c3=O)[C@H](O)[C@@H]2O)O[C@H](CO)[C@@H](O)[C@@H]1O[C@H](C)C(=O)N[C@@H](C)C(=O)N[C@H](CCC(=O)O)C(=O)O [UDP-N-acetylmuramoyl-L-alanyl-D-glutamate]
Amplex Red phosphate-release coupled assay; NADH assay ([3]; D,L-DAP): D, L‐DAP) and UDP‐N‐acetylmuramoyl‐ L‐alanyl‐D‐glutamate as substrates | Amplex Red phosphate-release coupled assay; NADH assay (PpMurE-TP_Avi_His (1.1T); D,L-DAP): UDP‐N‐acetylmuramoyl‐L‐alanyl‐D‐glutamate as the recipient molecule | Amplex Red phosphate-release coupled assay ([2]; L-lysine): L‐lysine as substrates with UDP‐N‐acetylmuramoyl‐L‐alanyl‐D‐glutamate as the acceptor

Nc1ncnc2c1ncn2[C@@H]1O[C@H](COP(=O)(O)OP(=O)(O)O)[C@@H](O)[C@H]1O [ADP]
inhibition seen in Amplex Red coupled assay (His_AnMurE (46T) [4]): an observed inhibitory effect of ADP on AnMurE in the Amplex Red assay

N[C@H](CCC[C@H](N)C(=O)O)C(=O)O [D, L-diaminopimelate]
Amplex Red phosphate-release coupled assay; NADH assay ([3]; UDP-MurNAc-L-Ala-D-Glu): an order of magnitude less active than Pseudomonas aeruginosa MurE | Amplex Red phosphate-release coupled assay; NADH assay (PpMurE-TP_Avi_His (1.1T); UDP-MurNAc-L-Ala-D-Glu): predominant substrate for both the moss, PpMurE, and cyanobacterial, AnMurE, ligases | Amplex Red phosphate-release coupled assay (His_AnMurE (46T) [1]): D, L‐lanthionine was equally as efficiently incorporated as D, L‐DAP by Anabaena MurE
